Data reported in US7993917B2, “Method for obtaining a cellular product from a cell or a tissue using protein-free medium” (The United States of America as represented by the …, priority 1999, dated 2011).
Like-named read-outs stand apart in the source and are kept apart here. Each block holds one molecule with its values, some of them ahead of it.

Test system: P. falciparum isolates
Experiment: 48 hour parasite lactate dehydrogenase (48 hr pLDH) drug sensitivity assay after transport from the field on ice in BAM
Type: cell-based
Settings: Plasmodium falciparum
Procedure: Malaria parasites fail to thrive after removal from the patient. They can be preserved either by cryopreservation in liquid nitrogen or storage at −70° C. These techniques used for long term storage are too labor-intensive and expensive for routine use. […] Transit time can vary between a few hours to less than a week. Because of the clinical demand for such a service, BAM was evaluated in the field as a transport medium for malaria parasites.

[1] = 24 h, isolate 1107, 1 day in transit, read-out: IC50
[2] = 24 h, isolate 1236, 1 day in transit, read-out: IC50
[3] = 24 h, isolate A116, 1 day in transit, read-out: IC50
[4] = 24 h, isolate A246, 1 day in transit, read-out: IC50
[5] = 24 h, isolate A296, 1 day in transit, read-out: IC50
[6] = 24 h, isolate B236, 1 day in transit, read-out: IC50
[7] = 24 h, isolate C67, 1 day in transit, read-out: IC50
[8] = 24 h, isolate C107, 1 day in transit, read-out: IC50
[9] = 24 h, isolate C166, 1 day in transit, read-out: IC50
[10] = 24 h, isolate D86, 1 day in transit, read-out: IC50
[11] = 24 h, isolate D107, 1 day in transit, read-out: IC50
[12] = 24 h, isolate D296, 1 day in transit, read-out: IC50
[13] = 24 h, isolate E107, 1 day in transit, read-out: IC50
[14] = 24 h, isolate F166, 1 day in transit, read-out: IC50
[15] = 24 h, isolate F296, 1 day in transit, read-out: IC50
[16] = 24 h, isolate G17, 1 day in transit, read-out: IC50
[17] = 24 h, isolate G236, 1 day in transit, read-out: IC50
[18] = 24 h, isolate H107, 1 day in transit, read-out: IC50
[19] = 24 h, isolate J107, 1 day in transit, read-out: IC50
[20] = 24 h, isolate K107, 1 day in transit, read-out: IC50
[21] = 24 h, isolate KilH, 1 day in transit, read-out: IC50
[22] = 24 h, isolate KilS, 1 day in transit, read-out: IC50
[23] = 24 h, isolate L107, 1 day in transit, read-out: IC50
[24] = 24 h, isolate L137, 1 day in transit, read-out: IC50
[25] = 48 h, isolate B116, 2 days in transit, read-out: IC50
[26] = 48 h, isolate B296, 2 days in transit, read-out: IC50
[27] = 48 h, isolate C108, 2 days in transit, read-out: IC50
[28] = 48 h, isolate G296, 2 days in transit, read-out: IC50
[29] = 48 h, isolate H236, 2 days in transit, read-out: IC50
[30] = 48 h, isolate R107, 2 days in transit, read-out: IC50

IC50 [1]: 6.6 nM
IC50 [2]: 26.8 nM
IC50 (24 h, isolate A67, 1 day in transit, read-out: IC50): 37.6 nM
IC50 (24 h, isolate A107, 1 day in transit, read-out: IC50): 91.8 nM
IC50 [3]: 70.2 nM
IC50 [4]: 17 nM
IC50 [5]: 152 nM
IC50 [6]: 28.8 nM
IC50 [7]: 117 nM
IC50 [8]: 179 nM
IC50 [9]: 68 nM
IC50 [10]: 29.8 nM
IC50 [11]: 178 nM
IC50 [12]: 180 nM
IC50 [13]: 152 nM
IC50 (24 h, isolate F107, 1 day in transit, read-out: IC50): 23.6 nM
IC50 [14]: 91.6 nM
IC50 [15]: 202 nM
IC50 [16]: 40.8 nM
IC50 [17]: 33.8 nM
IC50 [18]: 100 nM
IC50 [19]: 12.6 nM
IC50 [20]: 35.4 nM
IC50 [21]: 125 nM
IC50 [22]: 128 nM
IC50 [23]: 18.4 nM
IC50 [24]: 150 nM
IC50 (48 h, isolate B106, 2 days in transit, read-out: IC50): 99.2 nM
IC50 [25]: 145 nM
IC50 [26]: 53.4 nM
IC50 [27]: 86.2 nM
IC50 (48 h, isolate D166, 2 days in transit, read-out: IC50): 6.6 nM
IC50 [28]: 179 nM
IC50 [29]: 8.6 nM
IC50 [30]: 79.8 nM
Compound: CCN(CC)Cc1cc(Nc2ccnc3cc(Cl)ccc23)ccc1O [Amodiaquine, amodiaquine]

IC50 (24 h, isolate 1107, 1 day in transit): 160 nM
IC50 (24 h, isolate 1236, 1 day in transit): 22.2 nM
IC50 (24 h, isolate A67, 1 day in transit): 191 nM
IC50 (24 h, isolate A107, 1 day in transit): 818 nM
IC50 (24 h, isolate A116, 1 day in transit): 58.4 nM
IC50 (24 h, isolate A246, 1 day in transit): 20 nM
IC50 (24 h, isolate A296, 1 day in transit): 115 nM
IC50 (24 h, isolate B236, 1 day in transit): 90.6 nM
IC50 (24 h, isolate C67, 1 day in transit): 143 nM
IC50 (24 h, isolate C107, 1 day in transit): 554 nM
IC50 (24 h, isolate C166, 1 day in transit): 30.8 nM
IC50 (24 h, isolate D86, 1 day in transit): 33.2 nM
IC50 (24 h, isolate D107, 1 day in transit): 502 nM
IC50 (24 h, isolate E67, 1 day in transit): 50 nM
IC50 (24 h, isolate E107, 1 day in transit): 554 nM
IC50 (24 h, isolate F107, 1 day in transit): 818 nM
IC50 (24 h, isolate F166, 1 day in transit): 29.8 nM
IC50 (24 h, isolate F296, 1 day in transit): 66.4 nM
IC50 (24 h, isolate G17, 1 day in transit): 52 nM
IC50 (24 h, isolate G236, 1 day in transit): 330 nM
IC50 (24 h, isolate H107, 1 day in transit): 180 nM
IC50 (24 h, isolate J107, 1 day in transit): 294 nM
IC50 (24 h, isolate K107, 1 day in transit): 300 nM
IC50 (24 h, isolate KilH, 1 day in transit): 248 nM
IC50 (24 h, isolate KilS, 1 day in transit): 122 nM
IC50 (24 h, isolate L107, 1 day in transit): 224 nM
IC50 (24 h, isolate L137, 1 day in transit): 320 nM
IC50 (48 h, isolate B106, 2 days in transit): 294 nM
IC50 (48 h, isolate B116, 2 days in transit): 35.2 nM
IC50 (48 h, isolate B296, 2 days in transit): 664 nM
IC50 (48 h, isolate C108, 2 days in transit): 256 nM
IC50 (48 h, isolate G296, 2 days in transit): 400 nM
IC50 (48 h, isolate H236, 2 days in transit): 91.4 nM
IC50 (48 h, isolate R107, 2 days in transit): 78.8 nM
Compound: CCN(CC)CCCC(C)Nc1ccnc2cc(Cl)ccc12 (stereo not shown) [Chloroquine, chloroquine]

IC50 [1]: 40 nM
IC50 [2]: 0.04 nM
IC50 [3]: 152 nM
IC50 [4]: 16.3 nM
IC50 [5]: 476 nM
IC50 [6]: 183 nM
IC50 [7]: 136 nM
IC50 [8]: 96.4 nM
IC50 [9]: 165 nM
IC50 [10]: 175 nM
IC50 [11]: 264 nM
IC50 [12]: 999 nM
IC50 (24 h, isolate E67, 1 day in transit, read-out: IC50): 108 nM
IC50 [13]: 230 nM
IC50 [14]: 93.2 nM
IC50 [15]: 99.2 nM
IC50 [16]: 143 nM
IC50 [17]: 304 nM
IC50 [18]: 28 nM
IC50 [19]: 55.4 nM
IC50 [20]: 354 nM
IC50 [21]: 378 nM
IC50 [22]: 187 nM
IC50 [23]: 58.8 nM
IC50 [24]: 134 nM
IC50 [25]: 136 nM
IC50 [26]: 1.8 nM
IC50 [27]: 160 nM
IC50 [28]: 306 nM
IC50 [29]: 208 nM
IC50 [30]: 472 nM
Compound: C=C[C@H]1C[N@@]2CC[C@H]1C[C@H]2[C@H](O)c1ccnc2ccc(OC)cc12 [Quinine, quinine]
